Test results reported in patent US20110319484A1, “NEUROPROTECTIVE COMPOUNDS” (Parque Tecnologico de Ciencias de la Salud, priority 2009, published 2011).
“Also recorded” adds a separate entry of the source.

Tests used:
[1] = molecular target: T1, HMG-CoA reductase enzyme (Homo sapiens, UniProt P04035); experiment: HMG-CoA reductase inhibition, spectrophotometric NADPH oxidation at 340 nm; assay type: biochemical; conditions: for IC50: four independent assays, Trimmed Spearman-Karber method; for inhibition power of HMG-CoA reductase, times less than that of atorvastatin: relative to atorvastatin
T1 construct: the oxidation of the NADPH by the catalytic subunit of the HMG-CoA reductase
T1 sequence (P04035 340-888 limits assumed): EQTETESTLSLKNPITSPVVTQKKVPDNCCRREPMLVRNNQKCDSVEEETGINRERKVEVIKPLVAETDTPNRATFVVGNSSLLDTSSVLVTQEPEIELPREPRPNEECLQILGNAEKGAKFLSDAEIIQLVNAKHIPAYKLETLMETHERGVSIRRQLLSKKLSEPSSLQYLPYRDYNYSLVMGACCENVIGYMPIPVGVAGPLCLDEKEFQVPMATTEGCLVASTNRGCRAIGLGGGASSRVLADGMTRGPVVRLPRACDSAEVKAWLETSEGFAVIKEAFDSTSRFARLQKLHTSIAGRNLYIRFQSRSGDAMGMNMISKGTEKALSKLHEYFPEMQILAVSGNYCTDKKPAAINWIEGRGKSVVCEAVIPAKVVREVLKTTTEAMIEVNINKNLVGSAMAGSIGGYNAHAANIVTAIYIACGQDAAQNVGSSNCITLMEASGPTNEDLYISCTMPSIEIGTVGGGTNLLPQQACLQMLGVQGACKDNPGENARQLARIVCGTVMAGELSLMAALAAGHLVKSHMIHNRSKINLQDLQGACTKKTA
Text: To that end, the degree of inhibition of the HMG-CoA reductase enzyme by the different (1S,3R,7S,8S,8aR)-1,2,3,7,8,8a-hexahydro-3,7-dimethyl-8-[2-[(2R,4R)-tetrahydro-4-hydroxy-6-oxo-2H-pyran-2-yl]ethyl-1-naphthalenyl propanoate derivatives, optionally mono- or di-methylated at the carbon in the alpha position of propanoic acid (NST0003, NST0004 and NST0005) was studied.
During the reaction, the HMG-CoA reductase uses NADPH as a reducing agent and 3-hydroxy-3-methylglutaryl coenzyme A (HMG-CoA) as a substrate. Mevalonic acid, which serves as a substrate for the following reaction in order to continue with the cholesterol synthesis, is obtained as a reaction product. The enzymatic reaction object of study is schematically shown as follows:
This in vitro assay is based on the spectrophotometric measurement of the decrease of absorbance at 340 nm, representing the oxidation of the NADPH by the catalytic subunit of the HMG-CoA reductase in the presence of the HMG-CoA reductase substrate. The assay was carried out in a 96-well plate, with a total reaction volume of 200 μl. The reaction buffer (50 mM KH2PO4, 1 M KCl, 2 mg/ml bovine serum albumin (BSA) and 5 mM DTT, at pH=7.3) was prepared at the time of carrying out the reaction and was maintained at 37° C.
Four independent assays were carried out. […] The concentrations of the reagents involved in the reaction mixture were the following: 0.2 mM HMG-CoA, 3 μU/reaction HMG-CoA reductase and 0.2 mM NADPH. After brief agitation, the reading of the plate was taken in a spectrophotometer at the conditions of 340 nm, 37° C., detecting the decrease of absorbance at 340 nm over time. The percentage of HMG-CoA reductase enzymatic activity with respect to the control was calculated. The IC50 was calculated with the data obtained by means of the Trimmed Spearman-Karber method (Version 1.5).

[2] = Crossing of the blood-brain barrier by PAMPA in vitro assay; assay type: in vitro ADME, pig; conditions: acid forms, 100 μM, pH 7.4, 18 h
Procedure: To that end, the PAMPA (Parallel Artificial Membrane Permeation Assay) assay was used, which uses a sandwich system contemplating the crossing of compounds by means of passive diffusion, preventing active transport.
A mixture of commercial lipids derived from pig brain with a phospholipid composition very similar to that which forms the human BBB, called PBL (Porcine Polar Brain Lipid), was used to mimic the BBB, and it was stored at −20° C. dissolved in dodecane at 100 μg/ml in glass vials. The verapamil and theophylline were prepared at 10 mM in DMSO, whereas the acid forms of NST0003, NST0004 and NST0005 were prepared in water and were activated with 0.1 N NaOH at 4° C. for 12 h.
At the time of the assay, 1.5 ml of the compounds to be evaluated at 100 μM were prepared in a phosphate buffer at pH 7.4, maintaining a constant concentration of DMSO of 1%. 5 μl of PBL at 20 μg/ml were added in a 96-well filter plate, with a polyvinylidene fluoride (PVDF) membrane, with a pore size of […] (MAIPN4550, Millipore). After 2 minutes, 300 μl of the phosphate buffer used to dilute the compounds were added. This plate was considered the “acceptor” plate and was placed in the top part of the sandwich. 300 μl of the compounds were added at 100 μM on another 96-well plate which is assembled with the previous one (MATRNP550 of Millipore) (called “donor”) and in triplicate. […] After that time, 100 μl of the wells of the donor plates and of the acceptor plates were transferred to a special 96-well plate for ultraviolet (UV) reading. […] The plate was introduced in a spectrophotometer in which a scan was carried out in UV from 230 to 498 nm, with readings every 4 nm. From the data provided by the spectrophotometer the percentage of barrier crossing as well as the effective permeability (Pe) were calculated by applying the following formula:
[formula] […] [formula] • [Drug]acceptor=Absorbance of the acceptor well • [Drug]equilibrium=Absorbance of the mean of the basal wells/2 • VA=Volume of the acceptor well=0.3 cm^3 • VD=Volume of the donor well=0.3 cm^3 • Area=0.24 cm^2 • Time=64,000 s

Compound	IC50 [1] [µM]	inhibition power of HMG-CoA reductase, times less than that of atorvastatin [1] [times]	crossing of the blood-brain barrier [2]
C[C@H]1C=C2C=C[C@H](C)[C@H](CC[C@@H]3C[C@@H](O)CC(=O)O3)[C@H]2[C@@H](OC(=O)C(C)(C)C)C1 [NST0005]	0.865	4	highest capacity to cross the BBB; also recorded: capable of crossing the blood-brain barrier
CC(C)C(=O)O[C@H]1C[C@@H](C)C=C2C=C[C@H](C)[C@H](CC[C@@H]3C[C@@H](O)CC(=O)O3)[C@H]21 [NST0004]	23.2	100	capable of crossing the blood-brain barrier
CCC(=O)O[C@H]1C[C@@H](C)C=C2C=C[C@H](C)[C@H](CC[C@@H]3C[C@@H](O)CC(=O)O3)[C@H]21 [NST0003, (1S,3R,7S,8S,8aR)-1,2,3,7,8,8a-hexahydro-3,7-dimethyl-8-[2-[(2R,4R)-tetrahydro-4-hydroxy-6-oxo-2H-pyran-2-yl]ethyl-1-naphthalenyl propanoate]	40.6	170	capable of crossing the blood-brain barrier
